This passage reports EC50, Emax and Efficiency results from patent US10519154B2, “7-substituted 1-pyridyl-naphthyridine-3-carboxylic acid amides and use thereof” (Bayer Pharma Aktiengesellschaft, priority 2016, dated 2019).

The experiment concerns the target T1, human M2 receptor (Homo sapiens, UniProt P08172).
T1 sequence (P08172 1-466): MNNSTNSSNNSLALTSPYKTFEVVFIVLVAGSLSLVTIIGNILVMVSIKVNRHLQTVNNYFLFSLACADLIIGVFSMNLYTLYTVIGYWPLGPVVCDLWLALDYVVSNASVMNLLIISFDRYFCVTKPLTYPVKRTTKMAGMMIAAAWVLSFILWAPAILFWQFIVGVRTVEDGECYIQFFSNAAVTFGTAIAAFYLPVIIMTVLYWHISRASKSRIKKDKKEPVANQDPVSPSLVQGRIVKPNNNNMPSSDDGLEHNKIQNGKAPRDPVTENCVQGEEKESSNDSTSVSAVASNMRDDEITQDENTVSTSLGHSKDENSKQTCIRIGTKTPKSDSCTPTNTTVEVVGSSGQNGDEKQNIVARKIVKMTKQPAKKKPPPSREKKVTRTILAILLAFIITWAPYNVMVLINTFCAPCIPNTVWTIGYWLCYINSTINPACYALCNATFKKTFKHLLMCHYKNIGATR
In words: Functional M2-GIRK1/4 activation test: allosteric potency (EC50) and efficiency. To be noted: for EC50: Receptor activity EC50, CHO-DUKX-M2-GIRK cells, acetylcholine at EC20, in some cases mean of two or more determinations; for Emax: read-out: Efficiency, boosting of the acetylcholine effect at EC20 acetylcholine concentration; for Emax / Efficiency: CHO-DUKX-M2-GIRK cells; for Efficiency: boosting of the acetylcholine effect at EC20 acetylcholine concentration.

For orientation: EC50 means the concentration needed to bring the measured effect to its halfway point. The low end stands for an effect from little substance, the high end for a need for much substance. Consider `CC[C@@H](NC(=O)c1cn(-c2ncc(F)cc2F)c2nc(N3CCCC(O)C3)ccc2c1=O)C(F)(F)F` (mixture of isomers) [Example 117, 1-(3,5-Difluoropyridin-2-yl)-7-[3-hydroxypiperidin-1-yl]-4-oxo-N-[(2R)-1,1,1-trifluorobutan-2-yl]-1,4-dihydro-1,8-naphthyridine-3-carboxamide], for which the EC50 was determined as 400 nM and the Emax was 94.5%.

As for `CC[C@@H](NC(=O)c1cn(-c2ncccc2F)c2nc(N3CC4CC4(O)C3)ccc2c1=O)C(F)(F)F` (mixture of isomers) [Example 134, 1-(3-Fluoropyridin-2-yl)-7-[1-hydroxy-3-azabicyclo[3.1.0]hex-3-yl]-4-oxo-N-[(2R)-1,1,1-trifluorobutan-2-yl]-1,4-dihydro-1,8-naphthyridine-3-carboxamide], a half-maximal response (EC50) required 105 nM and the Emax came to 100%.

As for `O=C(N[C@H](C1CC1)C(F)(F)F)c1cn(-c2ncccc2F)c2nc(N3CC4CC4(O)C3)ccc2c1=O` (mixture of isomers) [Example 135, N-[(1R)-1-Cyclopropyl-2,2,2-trifluoroethyl]-1-(3-fluoropyridin-2-yl)-7-[(1S)-1-hydroxy-3-azabicyclo[3.1.0]hex-3-yl]-4-oxo-1,4-dihydro-1,8-naphthyridine-3-carboxamide], the EC50 came to 97 nM and the Emax came out at 100%.

On to `O=C(NC(c1ccccc1Cl)C(F)(F)F)c1cn(-c2ncc(F)cc2F)c2nc(N3CCNC3=O)ccc2c1=O` (racemic) [Example 147, N-[1-(2-Chlorophenyl)-2,2,2-trifluoroethyl]-1-(3,5-difluoropyridin-2-yl)-4-oxo-7-(2-oxoimidazolidin-1-yl)-1,4-dihydro-1,8-naphthyridine-3-carboxamide], for which the EC50 was determined as 55 nM and the Emax stood at 98.5%.

With `CC(NC(=O)c1cn(-c2ncc(F)cc2F)c2nc(N3CCNC3=O)ccc2c1=O)C(F)(F)C(F)(F)F` (racemic) [Example 161, 1-(3,5-Difluoropyridin-2-yl)-4-oxo-7-(2-oxoimidazolidin-1-yl)-N-[3,3,4,4,4-pentafluorobutan-2-yl]-1,4-dihydro-1,8-naphthyridine-3-carboxamide], a half-maximal effect (EC50) was put at 70 nM and the Emax came out at 100%.

For the compound `CCC(NC(=O)c1cn(-c2ncc(F)cc2F)c2nc(N3CCNC3=O)ccc2c1=O)C(F)(F)C(F)(F)F` (racemic) [Example 164, 1-(3,5-Difluoropyridin-2-yl)-4-oxo-7-(2-oxoimidazolidin-1-yl)-N-[1,1,1,2,2-pentafluoropentan-3-yl]-1,4-dihydro-1,8-naphthyridine-3-carboxamide], the EC50 was found to be 14 nM and the Emax is 100%.

As for `CC(C)C(NC(=O)c1cn(-c2ncc(F)cc2F)c2nc(N3CCNC3=O)ccc2c1=O)C(F)(F)F` (racemic) [Example 169, 1-(3,5-Difluoropyridin-2-yl)-4-oxo-7-(2-oxoimidazolidin-1-yl)-N-[1,1,1-trifluoro-3-methylbutan-2-yl]-1,4-dihydro-1,8-naphthyridine-3-carboxamide], a half-maximal response (EC50) required 120 nM and the Emax worked out at 97.5%.

Take `O=C(NC(c1ccccc1Cl)C(F)(F)F)c1cn(-c2ncc(F)cc2F)c2nc(N3C[C@@H](O)CC3=O)ccc2c1=O` (single isomer, unassigned) [Example 6]: the EC50 was 14 nM and the Emax was 95%.

With `O=C(NC(c1ccc(F)cc1)C(F)(F)F)c1cn(-c2ncc(F)cc2F)c2nc(N3C[C@@H](O)CC3=O)ccc2c1=O` (single isomer, unassigned) [Example 12], it took 55 nM to reach a half-maximal effect (EC50) and the Emax turned out to be 100%.

Turning to `O=C(NC(c1ccc(F)cc1)C(F)(F)F)c1cn(-c2ncc(F)cc2F)c2nc(N3C[C@@H](O)CC3=O)ccc2c1=O` (single isomer, unassigned) [Example 13], the midpoint of the response, the EC50, lay at 130 nM and the Efficiency worked out at 99.50%.

`CC1CC(=O)N(c2ccc3c(=O)c(C(=O)N[C@H](C4CC4)C(F)(F)F)cn(-c4ncc(F)cc4F)c3n2)C1` (single isomer, unassigned) [Example 29] displayed an EC50 of 59 nM and an Efficiency of 98.00%.

In the case of `O=C(N[C@H](C1CC1)C(F)(F)F)c1cn(-c2ncc(F)cc2F)c2nc(N3CC4CC4(O)C3)ccc2c1=O` (single isomer, unassigned) [Example 38], a half-maximal response (EC50) required 18 nM and the Emax came out at 98%.

For `O=C(N[C@H](C1CC1)C(F)(F)F)c1cn(-c2ncc(F)cc2F)c2nc(N3CC4CC4(O)C3)ccc2c1=O` (single isomer, unassigned) [Example 39], the EC50 was determined as 51 nM and the Efficiency worked out at 99.00%.

Take `CC[C@@H](NC(=O)c1cn(-c2ncc(F)cc2F)c2nc(N3CC4CC4(O)C3)ccc2c1=O)C(F)(F)F` (single isomer, unassigned) [Example 44]: the EC50 worked out at 31 nM and the Emax came to 98.5%.

`CC[C@@H](NC(=O)c1cn(-c2ncc(F)cc2F)c2nc(N3CC4CC4(O)C3)ccc2c1=O)C(F)(F)F` (single isomer, unassigned) [Example 45]: the EC50 is 57 nM and the Efficiency came to 96.00%.

On to `O=C(NC(C(F)(F)F)C(F)(F)F)c1cn(-c2ncc(F)cc2F)c2nc(N3CC4CC4(O)C3)ccc2c1=O` (single isomer, unassigned) [Example 58, 1-(3,5-Difluoropyridin-2-yl)-N-(1,1,1,3,3,3-hexafluoropropan-2-yl)-7-[1-hydroxy-3-azabicyclo[3.1.0]hex-3-yl]-4-oxo-1,4-dihydro-1,8-naphthyridine-3-carboxamide], for which the midpoint of the response, the EC50, lay at 11 nM and the Emax was 96%.

The compound `O=C(NC(C(F)(F)F)C(F)(F)F)c1cn(-c2ncc(F)cc2F)c2nc(N3CC4CC4(O)C3)ccc2c1=O` (single isomer, unassigned) [Example 59, 1-(3,5-Difluoropyridin-2-yl)-N-(1,1,1,3,3,3-hexafluoropropan-2-yl)-7-[1-hydroxy-3-azabicyclo[3.1.0]hex-3-yl]-4-oxo-1,4-dihydro-1,8-naphthyridine-3-carboxamide] gave an EC50 of 23 nM and an Efficiency of 99.00%.

On to `CC(NC(=O)c1cn(-c2ncc(F)cc2F)c2nc(N3C[C@@H](O)CC3=O)ccc2c1=O)C(F)(F)C(F)(F)F` (single isomer, unassigned) [Example 77], for which the midpoint of the response, the EC50, lay at 260 nM and the Emax came out at 100%.

On to `CC(NC(=O)c1cn(-c2ncc(F)cc2F)c2nc(N3C[C@@H](O)CC3=O)ccc2c1=O)C(F)(F)C(F)(F)F` (single isomer, unassigned) [Example 78], for which the midpoint of the response, the EC50, lay at 44 nM and the Efficiency was 91.50%.

`O=C(NC(c1ccccc1Cl)C(F)(F)F)c1cn(-c2ncc(F)cc2F)c2nc(N3C[C@@H](O)[C@H](O)C3)ccc2c1=O` (single isomer, unassigned) [Example 85]: the EC50 was determined as 85 nM and the Efficiency came to 99.00%.

In the case of `CC(NC(=O)c1cn(-c2ncc(F)cc2F)c2nc(N3C[C@@H](O)[C@H](O)C3)ccc2c1=O)C(F)(F)C(F)(F)F` (single isomer, unassigned) [Example 89], the EC50 worked out at 275 nM and the Emax was 98%.

In the case of `CCC(NC(=O)c1cn(-c2ncc(F)cc2F)c2nc(N3C[C@@H](O)CC3=O)ccc2c1=O)C(F)(F)C(F)(F)F` (single isomer, unassigned) [Example 94], a half-maximal response (EC50) required 32 nM and the Efficiency amounted to 100.00%.
